Consider five molecules from patent US20090099167A1, “Organic compounds” (Novartis Institutes for Biomedical Research, priority 2004, published 2009).

One assay concerns the target T1, human RET (Homo sapiens, UniProt P07949).
T1 construct: fused on or other part: N-terminal GST tag (pFB-GSTX3 vector)
Description: RET kinase inhibition, GST-wtRET or GST-RET-Men2B, 33P incorporation into poly(Glu,Tyr). In kind it is biochemical. As to conditions: Table 4. As for the experimental part:
The inhibition of RET is measured as follows: The baculovirus donor vector pFB-GSTX3 is used to generate a recombinant baculovirus that expresses the amino acid region 658-1072 (Swiss prot No. Q9BTB0) of the intra-cytoplasmic kinase domain of human RET-Men2A which corresponds to the wild-type kinase domain of RET (wtRET) and RET-Men2B, which differs from the wtRET by the activating mutation in the activation loop M918T. The coding sequences for the cytoplasmic domain of wtRET and RET-Men2B are amplified by PCR from the plasmids pBABEpuro RET-Men2A and pBABEpuro RET-Men2B. The amplified DNA fragments and the pFB-GSTX3 vector are made compatible for ligation by digestion with SalI and KpnI. Ligation of these DNA fragments results in the baculovirus donor plasmid pFB-GX3-RET-Men2A and pFB-GX3-RET-Men2B, respectively. Production of virus: Transfer vectors containing the kinase domains are transfected into the DH10Bac cell line (GIBCO) and plated on selective agar plates. Colonies without insertion of the fusion sequence into the viral genome (carried by the bacteria) are blue. Single, white colonies are picked and viral DNA (bacmid) are isolated from the bacteria by standard plasmid purification procedures. Sf9 cells or Sf21 (American Type Culture Collection) cells are then transfected in 25 cm^2 flasks with the viral DNA using Cellfectin reagent. Determination of small scale protein expression in Sf9 cells: Virus-containing media is collected from the transfected cell culture and used for infection to increase its titer. Virus-containing media obtained after two rounds of infection is used for large-scale protein expression. For large-scale protein expression 100 cm^2 round tissue culture plates are seeded with 5×10^7 cells/plate and infected with 1 mL of virus-containing media (approximately 5 MOIs). After 3 days, the cells are scraped off the plate and centrifuged at 500 rpm for 5 minutes. Cell pellets from 10-20, 100 cm^2 plates, are re-suspended in 50 mL of ice-cold lysis buffer (25 mM tris-HCl, pH 7.5, 2 mM EDTA, 1% NP-40, 1 mM DTT, 1 mM P MSF). The cells are stirred on ice for 15 minutes and then centrifuged at 5,000 rpms for 20 minutes. Purification of GST-tagged proteins: The centrifuged cell lysate is loaded onto a 2 mL glutathione-sepharose column (Pharmacia) and is washed 3× with 10 mL of 25 mM tris-HCl, pH 7.5, 2 mM EDTA, 1 mM DTT, 200 mM NaCl. The GST-tagged proteins are then eluted by 10 applications (1 mL each) of 25 mM tris-HCl, pH 7.5, 10 mM reduced-glutathione, 100 mM NaCl, 1 mM DTT, 10% glycerol and stored at −70° C. Measure of enzyme activity: Tyrosine protein kinase assays with either purified GST-wtRET or GST-RET-Men2B protein are carried out in a final volume of 30 μL containing 15 ng of either GST-wtRET or GST-RET-Men2B protein, 20 mM tris-HCl, pH 7.5, 1 mM MnCl2, 10 mM MgCl2, 1 mM DTT, 3 μg/mL poly(Glu,Tyr) 4:1, 1% DMSO, 2.0 μM ATP (γ-[^33P]-ATP 0.1 μCi). The activity is assayed in the presence or absence of inhibitors, by measuring the incorporation of ^33P from [γ^33P] ATP into poly(Glu,Tyr) 4:1. The assay is carried out in 96-well plates at ambient temperature for 15 minutes under conditions described below and terminated by the addition of 20 μL of 125 mM EDTA. Subsequently, 40 μL of the reaction mixture are transferred onto Immobilon-PVDF membrane (Millipore) previously soaked for 5 minutes with methanol, rinsed with water, then soaked for 5 minutes with 0.5% H3PO4 and mounted on vacuum manifold with disconnected vacuum source. After spotting all samples, vacuum is connected and each well-rinsed with 200 μL 0.5% H3PO4. Membranes are removed and washed 4× on a shaker with 1.0% H3PO4, once with ethanol. Membranes are counted after drying at ambient temperature, mounting in Packard TopCount 96-well frame, and addition of 10 μL/well of Microscint™ (Packard). IC50 values are calculated by linear regression analysis of the percentage inhibition of each compound in duplicate, at 4 concentrations (usually 0.01, 0.1, 1 and 10 μM). […]

The target in a further assay is T2, c-Kit (Homo sapiens, UniProt P10721).
T2 construct: whole cytoplasmic domain of c-Kit (aa 544-976); made in house; host or cells: Sf9 or High Five (baculovirus)
Briefly: c-kit kinase inhibition. In kind it is biochemical. As to conditions: Table 4.

Assay [1] concerns the target T3, human VEGF-R2 receptor (KDR) (Homo sapiens, UniProt P35968).
T3 construct: expressed in transfected cells; host or cells: CHO cells
Briefly: VEGF-induced KDR autophosphorylation in transfected CHO cells, sandwich ELISA. The assay is classed as cell-based. As to conditions: Table 4; read-out: KDR, activity (IC50 for kinase inhibition). Background: An ELISA detects its analyte on a solid surface through an enzyme-linked reagent.

Each structure is given as a SMILES string.

T3 sequence (P35968 20-1356): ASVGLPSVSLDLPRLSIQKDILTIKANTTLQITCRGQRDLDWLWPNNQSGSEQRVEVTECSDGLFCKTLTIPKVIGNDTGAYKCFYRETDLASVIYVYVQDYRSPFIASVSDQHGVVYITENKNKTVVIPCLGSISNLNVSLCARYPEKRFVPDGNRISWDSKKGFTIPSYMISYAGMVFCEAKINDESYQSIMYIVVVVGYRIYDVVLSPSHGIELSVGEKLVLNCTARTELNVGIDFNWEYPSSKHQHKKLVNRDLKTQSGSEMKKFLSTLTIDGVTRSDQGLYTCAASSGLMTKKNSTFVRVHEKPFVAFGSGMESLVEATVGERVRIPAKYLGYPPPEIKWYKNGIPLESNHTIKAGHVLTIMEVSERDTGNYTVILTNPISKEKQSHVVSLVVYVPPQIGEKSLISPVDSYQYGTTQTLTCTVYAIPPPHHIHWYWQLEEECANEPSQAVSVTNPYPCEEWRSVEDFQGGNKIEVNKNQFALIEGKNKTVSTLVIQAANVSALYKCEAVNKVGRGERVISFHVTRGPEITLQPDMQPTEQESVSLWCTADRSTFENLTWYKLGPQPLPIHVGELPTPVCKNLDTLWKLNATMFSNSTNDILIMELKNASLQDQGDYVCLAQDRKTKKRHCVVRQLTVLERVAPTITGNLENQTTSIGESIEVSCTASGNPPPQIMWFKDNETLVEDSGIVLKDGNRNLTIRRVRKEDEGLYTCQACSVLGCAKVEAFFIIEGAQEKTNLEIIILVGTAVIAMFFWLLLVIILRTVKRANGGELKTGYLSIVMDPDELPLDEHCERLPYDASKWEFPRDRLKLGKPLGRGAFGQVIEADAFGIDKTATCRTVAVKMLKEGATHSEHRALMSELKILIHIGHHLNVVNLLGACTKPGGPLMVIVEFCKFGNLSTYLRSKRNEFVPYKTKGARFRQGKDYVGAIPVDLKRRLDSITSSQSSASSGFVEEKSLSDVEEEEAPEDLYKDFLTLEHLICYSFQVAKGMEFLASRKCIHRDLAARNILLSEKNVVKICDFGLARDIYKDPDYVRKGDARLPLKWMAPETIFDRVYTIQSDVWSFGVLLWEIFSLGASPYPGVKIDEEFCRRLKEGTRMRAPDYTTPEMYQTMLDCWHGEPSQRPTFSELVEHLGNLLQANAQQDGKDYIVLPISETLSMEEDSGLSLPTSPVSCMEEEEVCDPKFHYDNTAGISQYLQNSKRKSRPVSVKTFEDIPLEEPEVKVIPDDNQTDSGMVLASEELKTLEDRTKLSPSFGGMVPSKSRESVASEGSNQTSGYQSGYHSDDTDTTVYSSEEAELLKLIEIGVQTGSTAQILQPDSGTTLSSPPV
T1 sequence (P07949 1-1072 isoform P07949-2): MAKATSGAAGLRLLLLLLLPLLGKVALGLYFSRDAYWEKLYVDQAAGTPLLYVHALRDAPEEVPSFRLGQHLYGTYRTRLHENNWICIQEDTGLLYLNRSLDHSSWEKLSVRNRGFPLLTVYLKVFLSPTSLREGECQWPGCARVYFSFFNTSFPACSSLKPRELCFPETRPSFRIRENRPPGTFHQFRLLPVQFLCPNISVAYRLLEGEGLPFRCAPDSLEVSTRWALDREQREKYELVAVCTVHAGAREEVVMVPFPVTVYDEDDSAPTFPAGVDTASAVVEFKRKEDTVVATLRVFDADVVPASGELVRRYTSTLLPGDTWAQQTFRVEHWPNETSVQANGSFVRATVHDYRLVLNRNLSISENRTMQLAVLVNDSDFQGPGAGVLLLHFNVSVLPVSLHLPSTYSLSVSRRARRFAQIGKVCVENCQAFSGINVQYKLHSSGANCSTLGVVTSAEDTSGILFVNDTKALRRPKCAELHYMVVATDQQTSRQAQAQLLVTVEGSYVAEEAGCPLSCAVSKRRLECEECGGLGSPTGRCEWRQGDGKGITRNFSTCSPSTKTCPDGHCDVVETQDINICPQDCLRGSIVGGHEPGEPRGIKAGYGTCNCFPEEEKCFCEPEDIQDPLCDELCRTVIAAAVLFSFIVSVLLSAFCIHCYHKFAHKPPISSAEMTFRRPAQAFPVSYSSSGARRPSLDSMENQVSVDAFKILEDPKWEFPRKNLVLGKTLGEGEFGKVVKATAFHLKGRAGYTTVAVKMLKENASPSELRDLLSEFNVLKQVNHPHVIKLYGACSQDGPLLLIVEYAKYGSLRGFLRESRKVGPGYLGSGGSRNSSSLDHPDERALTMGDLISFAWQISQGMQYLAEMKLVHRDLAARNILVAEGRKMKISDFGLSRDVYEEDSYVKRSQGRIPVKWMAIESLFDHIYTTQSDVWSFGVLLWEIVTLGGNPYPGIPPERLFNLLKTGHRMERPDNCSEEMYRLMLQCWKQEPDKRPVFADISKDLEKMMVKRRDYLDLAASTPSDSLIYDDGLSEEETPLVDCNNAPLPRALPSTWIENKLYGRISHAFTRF
T2 sequence (P10721 544-976): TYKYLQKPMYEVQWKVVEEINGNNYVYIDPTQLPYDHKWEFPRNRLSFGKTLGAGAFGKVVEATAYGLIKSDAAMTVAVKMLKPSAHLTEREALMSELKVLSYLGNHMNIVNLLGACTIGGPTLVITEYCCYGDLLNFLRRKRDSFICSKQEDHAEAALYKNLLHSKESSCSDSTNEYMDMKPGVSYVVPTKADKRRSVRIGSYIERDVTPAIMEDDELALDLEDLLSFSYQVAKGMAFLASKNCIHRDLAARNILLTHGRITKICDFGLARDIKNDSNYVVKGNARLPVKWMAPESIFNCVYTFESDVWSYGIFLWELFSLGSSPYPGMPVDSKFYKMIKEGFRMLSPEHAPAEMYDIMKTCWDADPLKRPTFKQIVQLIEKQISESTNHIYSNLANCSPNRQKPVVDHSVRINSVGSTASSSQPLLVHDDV

By IC50 is commonly meant the concentration that gives 50% inhibition. In the case of `CN1CCN(c2ccc(-c3cnn4c(N)c(-c5cccc(O)c5)cnc34)cc2)CC1` [Example 1, 3-{7-Amino-3-[4-(4-methyl-piperazin-1-yl)-phenyl]-pyrazolo[1,5-a]pyrimidin-6-yl}-phenol], the IC50 (against human RET; against c-Kit; in assay [1]) was below 10 µM in each case.
Take `CN1CCN(c2cccc(-c3cnn4c(N)c(-c5cccc(O)c5)cnc34)c2)CC1` [Example 29, 3-{7-Amino-3-[3-(4-methyl-piperazin-1-yl)-phenyl]-pyrazolo[1,5-a]pyrimidin-6-yl}-phenol]: the IC50 (on human RET; in assay [1]) was below 10 µM throughout.
As to `CN1CCN(c2cccc(-c3cnn4c(N)c(-c5ccc(O)cc5)cnc34)c2)CC1` [Example 39, 4-{7-Amino-3-[3-(4-methyl-piperazin-1-yl)-phenyl]-pyrazolo[1,5-a]pyrimidin-6-yl}-phenol], the IC50 on human RET is below 10 µM.
For the molecule `Nc1c(-c2cccc(O)c2)cnc2c(-c3cccnc3)cnn12` [Example 46, 3-[7-Amino-3-pyridin-3-yl-pyrazolo[1,5-a]pyrimidin-6-yl]-phenol], in assay [1], the IC50 was below 10 µM.
As to `COc1ccccc1-c1cnn2c(N)c(-c3cccc(O)c3)cnc12` [Example 48, 3-[7-Amino-3-(2-methoxy-phenyl)-pyrazolo[1,5-a]pyrimidin-6-yl]-phenol], the IC50 against human RET was below 10 µM.
